By EC50 is commonly meant the concentration giving half of the maximal effect.

For this experiment, the system named is Human RSV-A (“Long” strain). The experiment in a line: RSV-A in vitro cytoprotection assay in HEp-2 cells (ATPlite readout). It is filed as cell-based. To be noted: human respiratory syncytial virus, 96 h, 4-day incubation, ATPlite cell viability (CPE protection). An excerpt:
RSV is a single stranded negative sense RNA virus that causes respiratory tract infections which can be dangerous to infants, the elderly, and immunosuppressed individuals. Currently there is no vaccine, and therapeutic options are both costly and of limited effectiveness. These approved treatments are Ribavirin, and Palivizumab/Synagis (a monoclonal antibody). RSV has two genotypes, A and B, which differ primarily in the structure of the virus' surface “G” attachment protein. Our current primary screen focusses on RSV-A and uses an in vitro cytoprotection assay where compounds are added in 2-fold dilutions to cells which are then subjected to fully replicative viral particles. Cell viability is measured several days later along with separate measurements of compound cytotoxicity. This report focuses on the results of our most recent screening of compounds.
HEp-2 cells, (originally derived from tumors grown in irradiated-cortisonised weanling rats that had been injected with epidermoid carcinoma tissue from a person's larynx, but later found to be indistinguishable from HeLa cells by PCR DNA analysis), were used for the culturing of genotype A, “Long” strain RSV. Flasks were inoculated with RSV and viral stocks were collected once cytopathic effect (CPE) was greater than 90%. Viral stocks in 25% sucrose media were snap frozen using liquid nitrogen to increase viral stability. Viral stock titers were quantified by tissue culture infectious dose 50% (TCID50) using 8,000 cells per well and 3-fold viral dilutions across a 96-well plate, cultured for 4 days.
Following extensive parameter testing, the final assay is run as follows: HEp-2 cells are seeded into the inner 60 wells of a 96-well plate at 8,000 cells per well in a volume of 50 μL using Growth Media (DMEM without phenol red, 1% L-Glut, 1% Penn/Strep, 1% nonessential amino acids, 10% FBS). 2-fold serial dilutions of control and test compounds are added to the wells in duplicate in a total volume of 25 μL. Viral stock is then added to the wells in a volume of […] the total volume of each well to 100 μL. Each 96-well plate has a control column of 6 wells with cells and virus but no compound (negative control, max CPE), a column with cells but no compound or virus (positive control, minimum CPE), and a column with no cells or virus or compound (background plate/reagent control). The control wells with cells but no virus are given an additional 25 uL of growth media containing an equal quantity of sucrose as those wells receiving the viral stock in order to keep consistent in media and volume conditions. The outer wells of the plate are filled with 125 μL of growth media to act as a thermal and evaporative moat around the test wells. Following a 4-day incubation period, the plates are read using ATPlite (50 uL added per well), which quantifies the amount of ATP (a measure of cell health) present in each well. Assay plates are read using the Envision luminometer. […] EC50 ranges are as follows: A<1 μM; B 1-5 μM; C>5 μM.
For orientation: ATP-based viability assays read luminescence as a measure of living cells.
As for `O=C1Nc2ccccc2C(c2ccccc2)=C[C@@H]1Nc1nnc(-c2ccc(F)cc2)o1` [Example 1, (S)-3-((5-(4-fluorophenyl)-1,3,4-oxadiazol-2-yl)amino)-5-phenyl-1,3-dihydro-2H-benzo[b]azepin-2-one], the EC50 lay in the range of 1 to 5 µM.

The compound `O=C1Nc2ccccc2C(c2ccccc2)=C[C@@H]1Nc1nnc(-c2cn(-c3ccccn3)nc2N2CCOCC2)o1` [Example 2] had an EC50 of 1 to 5 µM.

Compound `O=C1Nc2ccccc2C(c2ccccc2)=C[C@@H]1Nc1nnc(-c2ccc(N3CCOCC3)cc2F)o1` [Example 3] came in with an EC50 of 1 to 5 µM.

Compound `O=C1Nc2ccccc2C(c2ccccc2)=C[C@@H]1Nc1nnc(-c2cccnc2N2CCOCC2)o1` [Example 4] showed an EC50 of 1 to 5 µM.

As for `O=C1Nc2ccccc2C(c2ccccc2)=C[C@@H]1Nc1nnc(-c2ncc(C3CC3)cc2N2CCOCC2)o1` [Example 5], the EC50 was less than 1 µM.

On to `C#Cc1cnc(-c2nnc(N[C@H]3C=C(c4ccccc4)c4ccccc4NC3=O)o2)c(N2CCOCC2)c1` [Example 6], for which the EC50 is less than 1 µM.

`O=C1Nc2ccccc2C(c2ccccc2)=C[C@@H]1Nc1nnc(-c2ncc(Br)cc2N2CCOCC2)o1` [Example 7] registered an EC50 of less than 1 µM.

With `N#Cc1cnc(-c2nnc(N[C@H]3C=C(c4ccccc4)c4ccccc4NC3=O)o2)c(N2CCOCC2)c1` [Example 8], the half-maximal effective concentration (EC50) was less than 1 µM.

`O=C1Nc2ccccc2C(c2ccccc2)=C[C@@H]1Nc1nnc(-c2ncc(C3CCC3)cc2N2CCOCC2)o1` [Example 9]: the EC50 lay within 1 to 5 µM.

In turn, `O=C1Nc2ccccc2C(c2ccccc2)=C[C@@H]1Nc1nnc(-c2ncc(C(F)(F)F)cc2N2CCOCC2)o1` [Example 10] gave an EC50 of less than 1 µM.

With `O=C1Nc2ccccc2C(c2ccccc2)=C[C@@H]1Nc1nnc(-c2nc(C3CC3)sc2N2CCOCC2)o1` [Example 11, (S)-3-((5-(2-cyclopropyl-5-morpholinothiazol-4-yl)-1,3,4-oxadiazol-2-yl)amino)-5-phenyl-1,3-dihydro-2H-benzo[b]azepin-2-one], the EC50 is less than 1 µM.

`O=C1Nc2ccccc2C(c2ccccc2)=C[C@H]1Nc1nnc(-c2nc(C3CC3)sc2N2CCOCC2)o1` [Example 12, (R)-3-((5-(2-cyclopropyl-5-morpholinothiazol-4-yl)-1,3,4-oxadiazol-2-yl)amino)-5-phenyl-1,3-dihydro-2H-benzo[b]azepin-2-one] gave an EC50 of less than 1 µM.

Compound `O=C1Nc2ccccc2C(c2ccccc2)=C[C@@H]1Nc1nnc(-c2nc(-c3cccnc3)sc2N2CCOCC2)o1` [Example 13, (S)-3-((5-(5-morpholino-2-(pyridin-3-yl)thiazol-4-yl)-1,3,4-oxadiazol-2-yl)amino)-5-phenyl-1,3-dihydro-2H-benzo[b]azepin-2-one] came in with an EC50 of less than 1 µM.

`O=C1Nc2ccccc2C(c2ccccc2)=C[C@H]1Nc1nnc(-c2nc(-c3cccnc3)sc2N2CCOCC2)o1` [Example 14, (R)-3-((5-(5-morpholino-2-(pyridin-3-yl)thiazol-4-yl)-1,3,4-oxadiazol-2-yl)amino)-5-phenyl-1,3-dihydro-2H-benzo[b]azepin-2-one] displayed an EC50 of 1 to 5 µM.

In the case of `O=C(Nc1ccccc1F)N[C@H]1C=C(c2ccccc2)c2ccccc2NC1=O` [Example 15, (S)-1-(2-fluorophenyl)-3-(2-oxo-5-phenyl-2,3-dihydro-1H-benzo[b]azepin-3-yl)urea], the EC50 was more than 5 µM.

`O=C1Nc2ccccc2C(c2ccccc2)=C[C@@H]1Nc1nc2ccccc2o1` [Example 16, (S)-3-(benzo[d]oxazol-2-ylamino)-5-phenyl-1,3-dihydro-2H-benzo[b]azepin-2-one] had an EC50 of more than 5 µM.

In turn, `O=C(N[C@H]1C=C(c2ccccc2)c2ccccc2NC1=O)c1ccccc1` [Example 17, (5)-N-(2-oxo-5-phenyl-2,3-dihydro-1H-benzo[b]azepin-3-yl)benzamide] registered an EC50 of more than 5 µM.
